This is an account of results in PubChem BioAssay (NCI).

Test systems include OVCAR-8 ovarian; M14 melanoma; UACC-62 melanoma; UACC-257 melanoma; SK-MEL-28 melanoma; ACHN renal; NCI-H23 lung; CAKI-1 renal; MDA-MB-435.
Common to all, as to experiment: growth of human tumour cells (NCI), 48 h

The structures appear in SMILES notation.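 Interpolation was linear, between the two tested concentrations surrounding the appropriate level; five concentrations were tested over 48 hours in 96-well plates. GI50 is the concentration that inhibits growth by half. TGI: total growth inhibition.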 Where only a bound is given, the exact number is not on record here.

Turning to `CC1=C(Cl)C=CP(=O)(OC(C)C)C1` (stereo unspecified), the TGI in the test with OVCAR-8 ovarian, in the test with M14 melanoma, with UACC-62 melanoma, with UACC-257 melanoma, in the test on SK-MEL-28 melanoma and in the test on ACHN renal was greater than 100 µM throughout. Further, the TGI in the test with NCI-H23 lung is greater than 100 µM.
Regarding `C=C1C2CC(OC(C)=O)C3(C)C(c4ccoc4)OC(=O)[C@@H](O)[C@]13OC1C[C@H](OC(C)=O)C(C)(C)[C@H](CC(=O)OC)[C@]12C` (stereo partly specified), the TGI in the test with OVCAR-8 ovarian, in the test on M14 melanoma, in the test with UACC-62 melanoma, in the test with SK-MEL-28 melanoma, with ACHN renal and with NCI-H23 lung was greater than 100 µM each time.
Turning to `COc1ccc2c(c1)[n+]([O-])c(-c1ccc(C)cc1)c(N)[n+]2[O-]`, the TGI in the test on OVCAR-8 ovarian was greater than 100 µM; in the test with M14 melanoma, greater than 100 µM; with UACC-257 melanoma it was 62 µM; in the test on SK-MEL-28 melanoma, greater than 100 µM; with ACHN renal, greater than 100 µM; in the test on NCI-H23 lung, 48.3 µM. The same molecule displayed a TGI in the test with CAKI-1 renal greater than 100 µM.
Regarding `C#CC1(O)c2ccccc2C(=O)c2ccccc21`, the TGI in the test on OVCAR-8 ovarian, in the test on UACC-257 melanoma, in the test with SK-MEL-28 melanoma, in the test with ACHN renal, in the test on NCI-H23 lung and in the test on CAKI-1 renal was greater than 100 µM throughout.
As to `COc1ccc(-c2cc(-c3cc(Cl)cc(Br)c3O)[nH]c(=O)n2)cc1`, the TGI in the test with OVCAR-8 ovarian stood at 37.2 µM; in the test with M14 melanoma, 43.3 µM; in the test on UACC-62 melanoma it was 29.4 µM; with UACC-257 melanoma, 42.2 µM; in the test on SK-MEL-28 melanoma, 44.7 µM; in the test on ACHN renal, 27.7 µM. In addition, the results for the TGI in the test on NCI-H23 lung and with CAKI-1 renal were 29.4 µM and 37.2 µM, respectively.
For the molecule `Cc1ccc(NC(=S)SCCC(=O)O)cc1`, the TGI in the test on OVCAR-8 ovarian, with M14 melanoma, in the test with UACC-257 melanoma, with SK-MEL-28 melanoma, with ACHN renal and with NCI-H23 lung was greater than 100 µM throughout. The TGI in the test on CAKI-1 renal is greater than 100 µM.
As for `OCCNCCCOc1ccc2ncnc(Nc3ccc(Oc4cccc(C(F)(F)F)c4)c(Cl)c3)c2c1`, the GI50 is 2.24 µM in the test on OVCAR-8 ovarian; 1.72 µM in the test with MDA-MB-435; 1.79 µM in the test on UACC-62 melanoma; 1.75 µM with SK-MEL-28 melanoma; 1.09 µM with ACHN renal; 1.63 µM in the test with NCI-H23 lung. For the same molecule, the GI50 in the test on CAKI-1 renal was 2.99 µM. In addition, the TGI in the test on OVCAR-8 ovarian was 5.83 µM; in the test with MDA-MB-435, 3.21 µM; in the test with UACC-62 melanoma it was 3.31 µM; in the test with SK-MEL-28 melanoma, 3.21 µM; in the test on ACHN renal it was 2.28 µM; in the test on NCI-H23 lung it was 3.13 µM. For the same molecule, the TGI with CAKI-1 renal was found to be 11.6 µM.
In the case of `CC(=O)[CH-]C(=O)c1ccccc1.CC(=O)[CH-]C(=O)c1ccccc1.Cl.[O-]c1ccccn1.[O-]c1ccccn1.[Ti+4]`, the GI50 in the test with OVCAR-8 ovarian, in the test with M14 melanoma, in the test with UACC-62 melanoma, with UACC-257 melanoma, with SK-MEL-28 melanoma and with ACHN renal was greater than 100 µM each time. For the same molecule, the GI50 in the test with CAKI-1 renal was greater than 100 µM. For the same molecule, the TGI in the test with OVCAR-8 ovarian, with M14 melanoma, with UACC-62 melanoma, with UACC-257 melanoma, with SK-MEL-28 melanoma and with ACHN renal was greater than 100 µM in each case. Moreover, in the test on CAKI-1 renal, the TGI was greater than 100 µM.
`CC12CO[C@@](C)(CC(S(=O)(=O)c3ccccc3)C1)O2` (stereo partly specified): the TGI with OVCAR-8 ovarian, in the test with M14 melanoma, in the test with UACC-62 melanoma, in the test with UACC-257 melanoma, with SK-MEL-28 melanoma and in the test on ACHN renal was greater than 100 µM in each case. For the same molecule, the TGI in the test with NCI-H23 lung is greater than 100 µM.
Take `COC(=O)C1C=NNC1C(=O)OC` (stereo unspecified): the TGI in the test with OVCAR-8 ovarian, in the test with M14 melanoma, in the test with UACC-62 melanoma, in the test with UACC-257 melanoma, with ACHN renal and in the test with NCI-H23 lung was greater than 100 µM throughout. Moreover, in the test with CAKI-1 renal, the TGI is greater than 100 µM.
Regarding `CCCCN(CCCC)CCC(O)c1cc2c(Cl)cc(Cl)cc2c2cc(C(F)(F)F)ccc12` (stereo unspecified), the TGI is 27.5 µM in the test on OVCAR-8 ovarian; 28.7 µM in the test with MDA-MB-435; 23.6 µM in the test on M14 melanoma; 29.9 µM in the test with UACC-62 melanoma; 29.6 µM with UACC-257 melanoma; 33.1 µM in the test with SK-MEL-28 melanoma. In addition, the figures for the TGI in the test with ACHN renal, in the test with NCI-H23 lung and in the test with CAKI-1 renal were 25.6 µM, 30.6 µM and 29.3 µM, respectively.
Take `O=S1(=O)CCCS(=O)(=O)C(c2ccccc2)=C1c1ccccc1`: the TGI in the test on OVCAR-8 ovarian, in the test on M14 melanoma, in the test on UACC-62 melanoma, in the test on UACC-257 melanoma, in the test with SK-MEL-28 melanoma and with ACHN renal was greater than 100 µM throughout. Moreover, the TGI in the test with NCI-H23 lung and with CAKI-1 renal was greater than 100 µM in each case.
`CCN(CC)C(=O)N1CCN(C=S)CC1`: the TGI in the test on OVCAR-8 ovarian, with M14 melanoma, in the test on UACC-62 melanoma, with UACC-257 melanoma, with SK-MEL-28 melanoma and in the test with ACHN renal was greater than 100 µM in each case. In the test with NCI-H23 lung, this molecule had a TGI greater than 100 µM.
With `Cc1ccc(-c2cc(=O)c3cc(C)c(C)c(C(=O)O)c3o2)cc1N`, the TGI with OVCAR-8 ovarian, in the test with M14 melanoma, in the test on UACC-62 melanoma, in the test with UACC-257 melanoma, in the test with SK-MEL-28 melanoma and in the test on ACHN renal was greater than 100 µM throughout. Besides, the TGI in the test on NCI-H23 lung and with CAKI-1 renal was greater than 100 µM in each case.
As to `CCOC(=N)CC(=O)Nc1cccc(Cl)c1`, the TGI with OVCAR-8 ovarian, with M14 melanoma, with UACC-62 melanoma, in the test on UACC-257 melanoma, in the test with SK-MEL-28 melanoma and in the test with ACHN renal was greater than 100 µM throughout. Further, the TGI in the test with NCI-H23 lung and in the test on CAKI-1 renal was greater than 100 µM each time.
Turning to `CCCNC(=O)c1ccc(Cl)cc1Cl`, the GI50 in the test on OVCAR-8 ovarian, in the test on MDA-MB-435, in the test on M14 melanoma, in the test on UACC-62 melanoma, in the test with UACC-257 melanoma and in the test on SK-MEL-28 melanoma was greater than 100 µM throughout. Further, the GI50 in the test on ACHN renal, in the test with NCI-H23 lung and with CAKI-1 renal was greater than 100 µM in each case. Further, the TGI in the test on OVCAR-8 ovarian, in the test with MDA-MB-435, in the test on M14 melanoma, with UACC-62 melanoma, with UACC-257 melanoma and in the test on SK-MEL-28 melanoma was greater than 100 µM throughout. Also, the TGI with ACHN renal, with NCI-H23 lung and in the test on CAKI-1 renal was greater than 100 µM each time.
